Results published in ChEMBL document CHEMBL1124856, “Extension of a redox-based chemical delivery system to alpha, beta-unsaturated ketones” (J Med Chem, 1990).
Several values for one entry are separate records, joined by “and”; a condition that tells them apart may be missing. Equal values may be shown once.

Tests used:
[1] = organism: Rattus norvegicus; assay: In vitro rate constant, correlation coefficient for the disappearance in rat brain homogenate; assay type: ADME
[2] = organism: Homo sapiens; assay: Half-life for the disappearance in whole human blood; Stable; assay type: ADME, organism-based; details: in vitro
[3] = Half-life for the disappearance in rat brain homogenate; assay type: ADME
[4] = Half-life for the disappearance in rat liver homogenate; assay type: ADME
[5] = organism: Rattus norvegicus; assay: In vitro rate constant, correlation coefficient for the disappearance in rat liver homogenate; assay type: ADME
[6] = organism: Homo sapiens; assay: In vitro rate constant, correlation coefficient for the disappearance in whole human blood; Stable
[7] = organism: Rattus norvegicus; assay: In vitro rate constant, correlation coefficient for the conversion to progesterone in rat liver homogenate; assay type: ADME
[8] = organism: Rattus norvegicus; assay: In vitro rate constant, correlation coefficient for the conversion to progesterone in whole rat blood.; assay type: ADME, organism-based

Row | Correlation coefficient [1] | T1/2 [2] | half-life [3] | half-life [4] | Correlation coefficient [5] | T1/2 [6] | Correlation coefficient [7] | Correlation coefficient [8] | Structure (SMILES)
1 | 0.98 | Stable | 106 min | 16 min | 0.999 | Stable |  |  | CC(=O)C1CCC2C3CC=C4C=C(OC(=O)C5=CN(C)C=CC5)CCC4(C)C3CCC12C (stereo not drawn)
2 |  |  |  |  |  |  | 0.996 and 0.994 | 0.998 | CC(=O)C1CCC2C3CC=C4C=C(OC(=O)c5ccc[n+](C)c5)CCC4(C)C3CCC12C.[I-] (stereo not drawn)
